According to patent publication US20010010922A1, “CLONING AND USES OF THE GENETIC LOCUS BCL-6” (priority 1994, published 2001):
Entries after “also recorded” stand apart in the source; their conditions may differ. Peptide text beside a SMILES is read from it. * marks the point of attachment. Cbz = O=C(OCc1ccccc1)*

Experiments:
BCL-6 [1] = assay: MEK-2E mediated degradation of BCL-6 in transfected 293T cells, Western blot; format: cell-based; details: 293T cells transfected with BCL-6 and MEK-2E; inhibitor 50 μM added 8 hrs after transfection
Description: (§1) FIGS. 22A-22B MAPK-induced BCL-6 degradation is mediated by the ubiquitin/proteasome pathway. (FIG. 22A) Western blot analysis of BCL-6 proteins in 293T cells transfected with BCL-6 in the absence or presence of co-transfected MEK-2E treated with 0.2% DMSO (lanes 1-3), 50 μM Calpain inhibitor II (lanes 4-6), or 50 μM MG132 (lanes 7-9) (added 8hrs after transfection). (FIG. 22B) 293T cells were transfected with BCL-6, His-Ub, and MEK-2E in the absence (lanes 1-4) or presence of MG132 (lanes 5-8). Cell lysates were immunoprecipitated with anti-BCL-6 antibodies (N-70-6) and the immunoprecipitants were analyzed by 6% SDS-PAGE followed by Western blot analysis using anti-ubiquitin antibodies.
293T cells, grow in DMEM, 10% FBS, were transfected transiently with various DNA vectors using standard calcium phosphate precipitation methods. […]
(§2) Total RNA were isolated from cells by using Trizol-reagents (GIBCO-BRL) and equal amounts of RNA were separated on 1% formaldehyde-agarose gel. […] For Ramos cells and their stable transfectants (untreated or treated), equal amounts of protein were analyzed by 8% or 10% SDS-PAGE, and subsequently by Western blot analysis using anti-BCL-6 (N-70-6), anti-ERK2 (C-14) or anti-HA (12CA5) antibodies at 1:3000, 1:1000 or 1:500 dilutions. […]

[2] = test system: BCL-6/ubiquitin conjugates; assay: In vivo ubiquitination assay in transfected 293T cells (anti-BCL-6 immunoprecipitation, anti-ubiquitin Western blot); format: cell-based
Description: as §1, with “antibodies. […]” for “antibodies.”
Therefore, we tested whether MEK-2E mediated degradation of BCL-6 in transfected 293T cells could be inhibited by the proteasome inhibitor Cbz-LLL (MG132) (Kim and Maniatis, 1996; Palombella et al., 1994; Rock et al., 1994). […] Because the addition of multiple ubiquitins to the proteolysis substrate is a key step preceding target degradation by the proteasome, we then tested whether BCL-6/ubiquitin conjugates in vivo could be detected. […] Cell lysates were subjected to immunoprecipitation with anti-BCL-6 antibodies, and the immunoprecipitates were analyzed by Western blotting using anti-ubiquitin antibodies. […]

BCL-6 [3] = assay: Anti-IgM treatment of Ramos cells, Western blot of BCL-6; format: cell-based, human; details: inhibitor 50 μM added 30 min (PD098059) or 1 hr (MG132) before anti-IgM
Description: FIGS. 23A-23E. BCL-6 is phosphorylated and degraded by antigen receptor signaling in B cells. Ramos cells ([…]) were treated with anti-IgM ([…]) and harvested at different time points after treatment as indicated. (FIG. 23A) (Top three panels) Equal amounts of cell extracts were used for Western blot analysis using anti-BCL-6 (top), or anti-ERK2 (middle) antibodies, and for solid phase ERK2 kinase assays (MBP, bottom); Equal amounts of RNAs (10 μg) were used for Northern blot analysis with BCL-6 or GAPDH probes (bottom). (FIG. 23B) Hyperphosphorylated BCL-6 proteins are more unstable. […] Cell extracts were immunoprecipitated with anti-BCL-6 antibodies and analyzed by SDS-PAGE followed by autoradiography. […] Equal amounts of cell extracts were loaded on 7% (HA-BCL-6 or HA-BCL-6Ala333,343) or 10% SDS-PAGE (HA-BCL-6ZF) and the amount of exogenous BCL-6 proteins were analyzed by Western blot using anti-HA antibodies (12CA5).
as §2

| Structure (SMILES) | inhibition of MEK-2E mediated BCL-6 degradation (BCL-6 [1]) | multi-ubiquitinated forms of BCL-6 (BCL-6/ubiquitin conjugates) ([2]; 293T cells transfected with BCL-6, His-Ub and MEK-2E, MG132 50 μM (lane 8)) | multi-ubiquitinated forms of BCL-6 (BCL-6/ubiquitin conjugates) ([2]; 293T cells transfected with BCL-6 and His-Ub, no MEK-2E, MG132 50 μM (lane 7)) | inhibition of anti-IgM-induced BCL-6 degradation (BCL-6 [3]) |
| --- | --- | --- | --- | --- |
| CSCC[C@@H](C=O)NC(=O)[C@H](CC(C)C)NC(=O)[C@H](CC(C)C)NC(C)=O [calpain inhibitor II] (Ac-Leu-Leu-Met-aldehyde) | not | – | – | – |
| CC(C)C[C@@H](C=O)NC(=O)[C@H](CC(C)C)NC(=O)[C@H](CC(C)C)NC(=O)OCc1ccccc1 [MG132, N-CBZ-Leu-Leu-Leu-AL] (Cbz-Leu-Leu-Leu-aldehyde) | prevented; also recorded: completely inhibited | detectable at high levels | low levels were detectable | specifically inhibited; also recorded: prevented |
| COc1cccc(-c2cc(=O)c3ccccc3o2)c1N [PD098059] | – | – | – | inhibited; also recorded: prevented |
